US20260199365A1, “BIS-SULFONAMIDE SHIP1 ACTIVATORS” (The Research Foundation for the State University of New York, priority 2022, published 2026)

Experiments:
[1] = Solubility of the isolated solid in common solvents; assay type: physicochemical; settings: DMSO, acetone, methanol, chloroform, and water
Description: While most of the analogs in Table 1 were easy to handle, attempts to isolate the thiomorpholine sulfone 23 were problematic. During the final sulfonamide formation to access 23 an insoluble solid was formed and filtered from the reaction mixture. […] A combustion analysis did match the formula for the desired product, however given the insolubility of this substance it was not evaluated further.

[2] = molecular target: T1, recombinant human truncated SHIP1 (tSHIP1) (Homo sapiens, UniProt Q92835); experiment: Malachite Green Phosphatase Release Assay (SHIP1 phosphatase activity); assay type: biochemical; settings: for Phosphatase activity in the Malachite Green Assay, analog concentration 125 μM: 125 μM analog; for Phosphatase activity in the Malachite Green Assay, analog concentration 125 μM / Phosphatase activity in the Malachite Green Assay, analog concentration 250 μM / Phosphatase activity in the Malachite Green Assay, analog concentration 500 μM: 100 μM PI(3,4,5)P3-diC8 substrate, normalized to vehicle control (DMSO) = 100%; for Phosphatase activity in the Malachite Green Assay, analog concentration 250 μM: 250 μM analog; for Phosphatase activity in the Malachite Green Assay, analog concentration 500 μM: 500 μM analog, >100% activation, <100% inhibition; for SHIP1 activator activity in the malachite green assay: discussion of Table 4 (125-500 μM)
T1 construct: tSHIP1 (SHIP1, residues 397-864) was amplified from pET24TEV-tSHIP1; His tag; made in house; host or cells: E. coli BL21
T1 sequence (Q92835 397-864): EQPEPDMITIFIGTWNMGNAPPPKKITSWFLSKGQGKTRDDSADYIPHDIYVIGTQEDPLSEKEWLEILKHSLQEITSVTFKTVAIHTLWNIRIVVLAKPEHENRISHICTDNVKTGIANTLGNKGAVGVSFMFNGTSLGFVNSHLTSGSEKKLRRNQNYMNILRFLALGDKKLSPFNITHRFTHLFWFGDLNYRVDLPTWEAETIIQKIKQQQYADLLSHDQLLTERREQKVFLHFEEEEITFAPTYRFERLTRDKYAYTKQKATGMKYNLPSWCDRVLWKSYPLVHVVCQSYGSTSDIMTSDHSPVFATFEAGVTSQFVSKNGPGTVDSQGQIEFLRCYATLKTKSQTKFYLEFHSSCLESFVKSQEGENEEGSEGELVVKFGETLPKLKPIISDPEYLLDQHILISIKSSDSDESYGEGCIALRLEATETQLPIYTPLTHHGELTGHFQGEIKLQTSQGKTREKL
Protocol: ^aPhosphatase activity for SHIP1 and SHIP2 enzyme as determined in the malachite green assay. Results were normalized to the phosphatase activity level from vehicle control (DMSO) used as 100% activity. Values >100% are attributed to activation, while values <100% show inhibition of the enzyme compared to the control. The assay was performed at the indicated concentration of the small molecule with 100 μM PI(3,4,5)P3-diC8 as the substrate. ^bnd=not determined, compound 23 was insoluble.
Cloning and expression of tSHIP1 of truncated human SHIP1 protein (tSHIP1) from human whole blood mRNA have been previously described (see Brooks R, Iyer, S., Akada, H., Neelam, S., Russo, C. M., Chisholm, J. D., and Kerr W. G. Coordinate Expansion of Murine Hematopoietic and Mesenchymal Stem Cell Compartments by SHIPi Stem Cells 2015; 33:848). Briefly, tSHIP1 (SHIP1, residues 397-864) was amplified from pET24TEV-tSHIP1. Plasmids were extracted with Midi Prep (Qiagen) and sequences were verified by sequencing of the entire expression regions. The plasmids were then transformed into E. coli BL21 (New England Biolabs). Fresh colonies were amplified in 1 L LB at 37° C., shaking at 250 rpm until OD600 nm reached 0.6. Protein expression was induced with […] IPTG and incubation was continued at 16° C., shaking at 250 rpm for 16 h. Following centrifugation, bacteria pellets were stored overnight at −20° C. Protein was extracted form bacterial cell pellet using BugBuster HT (Millipore), according to manufacturer's recommendations. The His-tagged protein was purified by FPLC using HisTrapHP 5 ml column (Cytiva Life Sciences) at a 5 ml/min flow rate and 10 mM-1M imidazole gradient in Buffer A (20 mM Tris pH 8.0, 300 mM NaCl, 10 mM imidazole, 5 mM β-mercaptoethanol). Fractions containing active protein by Malachite Green Phosphatase Release Assay (Echelon, see below) were pooled, concentrated and buffer exchanged to reduce imidazole concentration by centrifugation using Pierce Protein Concentrators 30KMWCO PES, (ThermoFisher Scientific). Protein was aliquoted and stored at −80° C. in a mixture of Buffer A (without β-ME) and 50% glycerol.
Malachite Green Phosphatase Release Assays: Malachite Green Phosphatase Release Assays (Echelon Biosciences) were performed with recombinant human truncated SHIP1 (tSHIP1) (Brooks, 2015) and SHIP2 (Echelon Biosciences). Briefly, serial dilutions of the compounds dissolved in DMSO were added to the recombinant enzymes diluted in reaction buffer Rx (50 mM Hepes pH 7.4, 150 mM NaCl, 1 mM MgCl2, 0.25 mM EDTA) in triplicate reactions in 96-well plates. Reactions were incubated for 2 min at room temperature. […] of 1 mM Phosphatidylinositol 3,4,5-trisphosphate diC8 (PI(3,4,5)P3diC8) (Echelon Biosciences) was added to each reaction to a final concentration of 100 μM in a final volume of […]. Following 20 min incubation at 37° C., 100 μL of Malachite Green Solution (Echelon Biosciences) was added to each well and plates were incubated at room temperature in the dark for 15 min. Plates were then read at 620 nm on a plate reader (Synergy 2, BioTek).

[3] = tested on: IL-6 production in BV-2 cells; experiment: ELISA quantitation of IL-6 production in BV-2 cells after stimulation with LPS; assay type: cell-based, murine; settings: 1 h pretreatment with SHIP1 activator 10 μM, then LPS
Protocol: FIG. 3 presents an ELISA quantitation of IL-6 production in BV-2 cells after stimulation with LPS. BV-2 cells were plated and treated for 1 h with vehicle (Veh, 0.25% DMSO) or SHIP1 activator (10 μM in Veh) prior to addition of LPS (100 ng/ml). Unstimulated BV2 cells treated with Veh are shown as an additional control to assess LPS induction of IL-6. (A) Evaluation of 1, 26, 29 and 53. (B) In a separate experiment, 70, and 71 were evaluated under similar conditions. Bars indicate Mean G SEM; statistical tests: two-way ANOVA with Tukey correction, **** p<0.0001, ** p<0.01.
Given this experience, some of the new activators were evaluated in a cell-based setting. Using the immortalized BV-2 cell line, which is derived from murine microglia and retains many microglial morphological and functional characteristics of microglia, an assay for the anti-inflammatory effects of these activators was developed. This assay involved treatment of the cells with lipopolysaccharides (LPS) to induce IL-6 production which can then be quantified with an ELISA.
Cell culture: The BV2 cell line was obtained from the ATCC (American Type Culture Collection). The ATCC and performs genetic validation on deposited cell lines. For the inflammatory cytokines production studies, BV2 cells were cultured in DMEM/F12 (Corning) 10% HI FBS at 37° C. and 5% CO2 in a humidified incubator and split 1:6 every 3 days with Cellstripper™ (Corning). Cells were kept at 37° C. and 5% CO2 in a humidified incubator.
ELISA measurements: Parental (scrambled guide control) BV2 cells were seeded at 5×10^5/mL, […] in 48 well plate. Cell were treated with […] small molecule or vehicle control (0.5% DMSO) and incubated for 1 h before addition of stimuli. LPS (10 ng/ml, E. coli O111: B4, Sigma) was added to the cells and incubated for 6 h to detect IL-6 production. Supernatants were spun down at 400×g for 5 minutes to remove cell debris and froze at −20° C. for ELISAs. IL-6 levels were quantified from cellular supernatants with ELISA MAX™ Standard Set Mouse IL-6 kit (Biolegend), following manufacturer's recommendations. We detected absorbance at 450 nm and removed 570 nm background absorbance, with a plate reader (Synergy 2, BioTek). All experiments were repeated three times and each value was reported as mean±SEM from biological replicates in the same assay. All statistical analysis were performed using GraphPad Prism (version 9.2). Two-way ANOVA was used to analyze all data with two independent variables as time and treatment or concentration and treatment, data is reported as Mean+/−SEM.

Structure (SMILES) | Solubility [1] | Phosphatase activity in the Malachite Green Assay, analog concentration 125 μM [2] [%] | Phosphatase activity in the Malachite Green Assay, analog concentration 250 μM [2] [%] | Phosphatase activity in the Malachite Green Assay, analog concentration 500 μM [2] [%] | SHIP1 activator activity in the malachite green assay [2] | IL-6 production induced by LPS [3]
Cc1sc(S(=O)(=O)N2CCS(=O)(=O)CC2)cc1NC(=O)CNS(=O)(=O)c1ccc(F)cc1 [Compound 23] | insoluble in any solvent | – | – | – | – | –
Cc1sc(S(=O)(=O)N2CCCCC2)cc1NC(=O)CNS(=O)(=O)c1ccc(F)cc1 [Compound K368, 2-(4-Fluorobenzenesulfonamido)-N-[2-methyl-5-(piperidine-1-sulfonyl)thiophen-3-yl]acetamide] | – | 116 | 119 | 128 | nearly as active as K306 | especially significant reductions of IL-6 production
CCCCNS(=O)(=O)c1cc(NC(=O)CNS(=O)(=O)c2ccc(F)cc2)c(C)s1 [Compound K382, N-[5-(Butylsulfamoyl)-2-methylthiophen-3-yl]-2-(4-fluorobenzenesulfonamido) acetamide] | – | 124 | 124 | 122 | – | especially significant reductions of IL-6 production
Cc1sc(S(=O)(=O)N2CCSCC2)cc1NC(=O)CNS(=O)(=O)c1ccccc1C(F)(F)F [Compound K403, N-[2-methyl-5-(thiomorpholine-4-sulfonyl)thiophen-3-yl]-2-(2-trifluoromethylbenzenesulfonamido) acetamide] | – | 106 | 108 | 139 | good activator activity | significant activity
Cc1sc(S(=O)(=O)N2CCSCC2)cc1NC(=O)[C@@H]1CCCN1S(=O)(=O)c1ccc(F)cc1 [Compound K408] | – | 107 | 127 | 130 | significant activity at 250 μM | significant decrease in IL-6 formation
